The results in this text go back to paper PMC6273036, “N-Alkoxyphenylhydroxynaphthalenecarboxamides and Their Antimycobacterial Activity” (Molecules, 2016).

Values after ≈ are worked out from the molar mass of the structure shown. A value given as a limit tells only on which side of the number the result lay.

Assay [1] deals with human monocytic leukemia THP-1 cells. The experiment in a line: In vitro antiproliferative assay (WST-1). The note with it: THP-1, 24 h, read-out: IC50 (antiproliferative activity). For orientation: Tetrazolium assays rely on reduction of a dye to a coloured formazan, in cell work by metabolically active cells.
Method: Human monocytic leukemia THP-1 cells were used for in vitro antiproliferative assay. Cells were obtained from the European Collection of Cell Cultures (ECACC, Salisbury, UK) and routinely cultured in RPMI 1640 medium supplemented with 10% fetal bovine serum, 2% L-glutamine, 1% penicillin and streptomycin at 37 °C with 5% CO2. Cells were passaged at approximately one-week intervals. Antiproliferative activity of the compounds was determined using a Water Soluble Tetrazolium Salts-1 (WST-1, 2-(4-iodophenyl)-3-(4-nitrophenyl)-5-(2,4-disulfophenyl)-2H-tetrazolium) assay kit (Roche Diagnostics, Mannheim, Germany) according to the manufacturer’s instructions. The tested compounds were dissolved in DMSO and added in five increasing concentrations (0.37, 1.1, 3.3, 10 and 30 μM) to the cell suspension in the culture RPMI 1640 medium. The maximum concentration of DMSO in the assays never exceeded 0.1%. Subsequently, the cells were incubated for 24 h at 37 °C with 5% CO2. For WST-1 assays, cells were seeded into 96-well plates (5 × 10^4 cells/well in 100 μL culture medium) in triplicate in serum-free RPMI 1640 medium, and measurements were taken 24 h after the treatment with the compounds. The median inhibition concentration values, IC50, were deduced through the production of a dose-response curve. All data were evaluated using GraphPad Prism 5.00 software (GraphPad Software, San Diego, CA, USA).
The subject of assay [2] is Mycobacterium kansasii DSM 44162. The experiment in a line: In vitro antimycobacterial evaluation (broth dilution micro-method, MIC) against M. kansasii. The assay is classed as cell-based. The note with it: DSM44162, 168 h, M. kansasii DSM 44162, MIC = IC90, 7 days incubation, visual. For orientation: Broth dilution looks for growth in wells or tubes with falling amounts of substance.

Assay [3] concerns Mycobacterium tuberculosis H37Ra ATCC 25177. The experiment in a line: In vitro antimycobacterial evaluation (alamarBlue, MIC) against M. tuberculosis. It counts as cell-based. The note with it: 168 h, M. tuberculosis H37Ra ATCC 25177, MIC = 90% or greater (IC90) reduction of growth, 7 days. How it is done: The evaluation of the in vitro antimycobacterial activity of the compounds was performed against Mycobacterium tuberculosis H37Ra ATCC 25177 (MT), M. kansasii DSM 44162 (MK) and M. smegmatis ATCC 700084 (MS), see Table 1. To lower risk and make manipulation in the laboratory easier, surrogate model pathogens for M. tuberculosis can be used in laboratory studies. Avirulent M. tuberculosis strain H37Ra is very closely related to and has similar pathology as human-infecting M. tuberculosis strains, making it a good model for study especially because of the lower risk for laboratory workers. M. kansasii, the most virulent of the NTM, causes nontuberculous mycobacterial lung infections, which are now very common, and can be indistinguishable from tuberculosis. M. smegmatis is an ideal representative of a fast-growing nonpathogenic microorganism, particularly useful in studying basic cellular processes of special relevance to pathogenic mycobacteria. Therefore additionally M. kansasii and M. smegmatis were chosen as model species for screening of prospective antimycobacterial drugs to control mycobacterial diseases. The potency of the compounds was expressed as the minimum inhibitory concentration (MIC) that is defined for mycobacteria as 90% or greater (IC90) reduction of growth in comparison with the control.
Mycobacterium tuberculosis H37Ra ATCC 25177 was grown in Middlebrook broth (MB), supplemented with Oleic-Albumin-Dextrose-Catalase (OADC) supplement (Becton, Dickinson & Comp., Franklin Lakes, NJ, USA) and mycobactin J (2 μg/mL). At log phase growth, a culture sample (10 mL) was centrifuged at 15,000 rpm/20 min using a bench top centrifuge (Model CR 4-12, Jouan Inc., Winchester, VA, USA). Following the removal of the supernatant, the pellet was washed in fresh Middlebrook 7H9GC broth and re-suspended in fresh, ODAC-supplemented MB (10 mL). The turbidity was adjusted to match McFarland standard No. 1 (3 × 10^8 cfu) with MB broth. A further 1:20 dilution of the culture was then performed in MB broth. The antimicrobial susceptibility of M. tuberculosis was investigated in a 96-well plate format. In these experiments, sterile deionised water (300 µL) was added to all outer-perimeter wells of the plates to minimize evaporation of the medium in the test wells during incubation. Each evaluated compound (100 µL) was incubated with M. tuberculosis (100 µL). Dilutions of each compound were prepared in duplicate. For all synthesized compounds, final concentrations ranged from 1000 μg/mL to 8 μg/mL. All compounds were dissolved in DMSO, and subsequent dilutions were made in supplemented MB. The plates were sealed with parafilm and incubated at 37 °C for 7 days. Following incubation, a 10% addition of alamarBlue (AbD Serotec, Kidlington, UK) was mixed into each well, and readings at 570 nm and 600 nm were taken, initially for background subtraction and subsequently after 24 h re-incubation. The background subtraction is necessary for strongly coloured compounds, where the colour may interfere with the interpretation of any colour change. For non-interfering compounds, a blue colour in the well was interpreted as the absence of growth, and a pink colour was scored as growth.
The minimum inhibitory concentration (MIC) was defined as the lowest concentration of the compound at which no visible bacterial growth was observed, i.e., the MIC is the lowest concentration that prevented a visual colour change from blue to pink. MIC is defined for mycobacteria as 90% or greater (IC90) reduction of growth in comparison with the control. The MIC/IC90 value is routinely and widely used in bacterial assays and is a standard detection limit according to the Clinical and Laboratory Standards Institute (CLSI, www.clsi.org). Rifampicin and isoniazid (Sigma-Aldrich) were used as the standards as they are clinically used antimycobacterial drugs.
For orientation: Resazurin is reduced to fluorescent resorufin, in cell work by metabolically active cells.

In assay [4] the test system is M. smegmatis ATCC 700084. The experiment in a line: In vitro antimycobacterial evaluation (broth dilution micro-method, MIC) against M. smegmatis. The assay is classed as cell-based. The note with it: Mycolicibacterium smegmatis, ATCC700084, 72 h; Mycobacterium smegmatis ATCC 700084; MIC = IC90; 3 days incubation, visual.

Consider `O=C(Nc1ccccc1)c1c(O)ccc2ccccc12` [Compound 1, 2-Hydroxy-N-phenylnaphthalene-1-carboxamide], for which, in assay [1], the IC50 was more than 30 µM. Besides, the MIC is 15 µM (≈ 3.95 µg/mL) in assay [2] and 94 µM (≈ 24.7 µg/mL) in assay [3].
Turning to `COc1ccccc1NC(=O)c1c(O)ccc2ccccc12` [Compound 2a, 2-hydroxy-N-(2-methoxyphenyl)naphtha-lene-1-carboxamide], the MIC in assay [2] worked out at 873 µM (≈ 256 µg/mL); in assay [3], 852 µM (≈ 250 µg/mL); in assay [4] it was 873 µM (≈ 256 µg/mL).
`COc1cccc(NC(=O)c2c(O)ccc3ccccc23)c1` [Compound 2b, 2-hydroxy-N-(3-methoxyphenyl)naphthalene-1-carboxamide] came in with an MIC in assay [3] of 852 µM (≈ 250 µg/mL).
On to `COc1ccc(NC(=O)c2c(O)ccc3ccccc23)cc1` [Compound 2c, 2-hydroxy-N-(4-methoxyphenyl)naphthalene-1-carboxamide], for which, in assay [3], it took 852 µM (≈ 250 µg/mL) to inhibit growth (MIC).
`CCOc1cccc(NC(=O)c2c(O)ccc3ccccc23)c1` [Compound 3b, N-(3-Ethoxyphenyl)-2-hydroxynaphthalene-1-carboxamide]: the results for the MIC in assay [2], in assay [3] and in assay [4] were 208 µM (≈ 63.9 µg/mL), 813 µM (≈ 250 µg/mL) and 416 µM (≈ 128 µg/mL), respectively.
`CCCOc1ccccc1NC(=O)c1c(O)ccc2ccccc12` [Compound 4a, 2-Hydroxy-N-(2-propoxyphenyl)naphthalene-1-carboxamide]: the 50% inhibitory concentration (IC50) in assay [1] was more than 30 µM. Besides, the MIC in assay [2] came to 99 µM (≈ 31.8 µg/mL); in assay [3], 37 µM (≈ 11.9 µg/mL); in assay [4], 796 µM (≈ 256 µg/mL).
The like results for `CCCOc1cccc(NC(=O)c2c(O)ccc3ccccc23)c1` [Compound 4b, 2-Hydroxy-N-(3-propoxyphenyl)naphthalene-1-carboxamide] were, in that order, 8.97 ± 0.34 µM, 199 µM (≈ 64 µg/mL), 46 µM (≈ 14.8 µg/mL) and 398 µM (≈ 128 µg/mL).
The like results for `CCCCOc1ccccc1NC(=O)c1c(O)ccc2ccccc12` [Compound 5a, N-(2-Butoxyphenyl)-2-hydroxynaphthalene-1-carboxamide] were, in that order, more than 30 µM, 763 µM (≈ 256 µg/mL), 745 µM (≈ 250 µg/mL) and 763 µM (≈ 256 µg/mL).
Taken in the same sequence, the figures for `CCCCOc1ccc(NC(=O)c2c(O)ccc3ccccc23)cc1` [Compound 5c, N-(4-Butoxyphenyl)-2-hydroxynaphthalene-1-carboxamide] were more than 30 µM, 95 µM (≈ 31.9 µg/mL), 745 µM (≈ 250 µg/mL) and 763 µM (≈ 256 µg/mL).
With `CC(C)Oc1ccccc1NC(=O)c1c(O)ccc2ccccc12` [Compound 6a, 2-Hydroxy-N-[2-(prop-2-yloxy)phenyl]naphthalene-1-carboxamide], the IC50 in assay [1] is more than 30 µM. For the same compound, the MIC in assay [2] stood at 99 µM (≈ 31.8 µg/mL); in assay [3] it was 31 µM (≈ 9.96 µg/mL); in assay [4], 796 µM (≈ 256 µg/mL).
The like results for `CC(C)Oc1cccc(NC(=O)c2c(O)ccc3ccccc23)c1` [Compound 6b, 2-Hydroxy-N-[3-(prop-2-yloxy)phenyl]naphthalene-1-carboxamide] were, in that order, 8.84 ± 0.22 µM, 199 µM (≈ 64 µg/mL), 778 µM (≈ 250 µg/mL) and 398 µM (≈ 128 µg/mL).
Taken in the same sequence, the figures for `CCC(C)Oc1ccccc1NC(=O)c1c(O)ccc2ccccc12` (stereo not shown) [Compound 7a, N-[2-(But-2-yloxy)phenyl]-2-hydroxynaphthalene-1-carboxamide] were 8.35 ± 1.25 µM, 95 µM (≈ 31.9 µg/mL), 44 µM (≈ 14.8 µg/mL) and 763 µM (≈ 256 µg/mL).
The like results for `O=C(Nc1ccccc1)c1ccc2ccccc2c1O` [Compound 8, 1-Hydroxy-N-phenylnaphthalene-2-carboxamide] were, in that order, more than 30 µM, 15 µM (≈ 3.95 µg/mL), 97 µM (≈ 25.5 µg/mL) and 243 µM (≈ 64 µg/mL).
With `COc1ccccc1NC(=O)c1ccc2ccccc2c1O` [Compound 9a, 1-hydroxy-N-(2-methoxyphenyl)naphtha-lene-2-carboxamide], the MIC in assay [2] came to 873 µM (≈ 256 µg/mL); in assay [3] it was 852 µM (≈ 250 µg/mL); in assay [4] it was 873 µM (≈ 256 µg/mL).
On to `COc1cccc(NC(=O)c2ccc3ccccc3c2O)c1` [Compound 9b, 1-hydroxy-N-(3-methoxyphenyl)naphthalene-2-carboxamide], for which the MIC was 873 µM (≈ 256 µg/mL) in assay [2], 852 µM (≈ 250 µg/mL) in assay [3] and 873 µM (≈ 256 µg/mL) in assay [4].
As for `COc1ccc(NC(=O)c2ccc3ccccc3c2O)cc1` [Compound 9c, 1-hydroxy-N-(4-methoxyphenyl)naphthalene-2-carboxamide], the MIC in assay [2] turned out to be 873 µM (≈ 256 µg/mL); in assay [3], 852 µM (≈ 250 µg/mL); in assay [4] it was 873 µM (≈ 256 µg/mL).
In the case of `CCOc1ccccc1NC(=O)c1ccc2ccccc2c1O` [Compound 10a, N-(2-Ethoxyphenyl)-1-hydroxynaphthalene-2-carboxamide], the figures for the MIC in assay [2], in assay [3] and in assay [4] were 832 µM (≈ 256 µg/mL), 813 µM (≈ 250 µg/mL) and 832 µM (≈ 256 µg/mL), respectively.
As for `CCOc1cccc(NC(=O)c2ccc3ccccc3c2O)c1` [Compound 10b, N-(3-Ethoxyphenyl)-1-hydroxynaphthalene-2-carboxamide], the half-inhibitory concentration (IC50) in assay [1] was determined as 3.02 ± 0.96 µM. The MIC was determined as 52 µM (≈ 16 µg/mL) in assay [2], 813 µM (≈ 250 µg/mL) in assay [3] and 832 µM (≈ 256 µg/mL) in assay [4].
For the compound `CCOc1ccc(NC(=O)c2ccc3ccccc3c2O)cc1` [Compound 10c, N-(4-Ethoxyphenyl)-1-hydroxynaphthalene-2-carboxamide], the figures for the MIC in assay [2], in assay [3] and in assay [4] were 832 µM (≈ 256 µg/mL), 813 µM (≈ 250 µg/mL) and 832 µM (≈ 256 µg/mL), respectively.
As to `CCCOc1ccccc1NC(=O)c1ccc2ccccc2c1O` [Compound 11a, 1-Hydroxy-N-(2-propoxyphenyl)naphthalene-2-carboxamide], the results for the MIC in assay [2], in assay [3] and in assay [4] were 24 µM (≈ 7.71 µg/mL), 778 µM (≈ 250 µg/mL) and 796 µM (≈ 256 µg/mL), respectively.
Turning to `CCCOc1ccc(NC(=O)c2ccc3ccccc3c2O)cc1` [Compound 11c, 1-Hydroxy-N-(4-propoxyphenyl)naphthalene-2-carboxamide], the IC50 in assay [1] was more than 30 µM. The MIC in assay [2] amounted to 24 µM (≈ 7.71 µg/mL); in assay [3] it was 778 µM (≈ 250 µg/mL); in assay [4], 796 µM (≈ 256 µg/mL).
On to `CCCCOc1ccccc1NC(=O)c1ccc2ccccc2c1O` [Compound 12a, N-(2-Butoxyphenyl)-1-hydroxynaphthalene-2-carboxamide], for which the MIC stood at 763 µM (≈ 256 µg/mL) in assay [2], 745 µM (≈ 250 µg/mL) in assay [3] and 763 µM (≈ 256 µg/mL) in assay [4].
In the case of `CCCCOc1ccc(NC(=O)c2ccc3ccccc3c2O)cc1` [Compound 12c, N-(4-Butoxyphenyl)-1-hydroxynaphthalene-2-carboxamide], the IC50 in assay [1] is more than 30 µM. Further, the values for the MIC in assay [2], in assay [3] and in assay [4] were 23 µM (≈ 7.71 µg/mL), 745 µM (≈ 250 µg/mL) and 763 µM (≈ 256 µg/mL), respectively.
As for `CC(C)Oc1ccccc1NC(=O)c1ccc2ccccc2c1O` [Compound 13a, 1-Hydroxy-N-[2-(prop-2-yloxy)phenyl]naphthalene-2-carboxamide], the MIC in assay [2] was 796 µM (≈ 256 µg/mL); in assay [3] it was 778 µM (≈ 250 µg/mL); in assay [4], 796 µM (≈ 256 µg/mL).
On to `CC(C)Oc1cccc(NC(=O)c2ccc3ccccc3c2O)c1` [Compound 13b, 1-Hydroxy-N-[3-(prop-2-yloxy)phenyl]naphthalene-2-carboxamide], for which the IC50 in assay [1] is 4.32 ± 0.74 µM. For the same compound, the MIC stood at 796 µM (≈ 256 µg/mL) in assay [2], 389 µM (≈ 125 µg/mL) in assay [3] and 796 µM (≈ 256 µg/mL) in assay [4].
On to `NNC(=O)c1ccncc1` [INH, isoniazid, reference compound], for which the IC50 in assay [1] is more than 30 µM. Further, in assay [3], the lowest concentration to inhibit growth (MIC) was 58 µM (≈ 7.95 µg/mL).

A word on the IC50: it is the concentration that inhibits the measured activity by half. As a reminder, the MIC is the lowest concentration found to suppress growth. A low value points to greater potency.
